Test results from ChEMBL document CHEMBL3430912, “GSK Tres Cantos Anti-Kinetoplastid Screening (TCAKS) Data”.

Experiments:
[1] = test system: Trypanosoma cruzi; experiment: GSK_TCAKS: pIC50 Trypanosoma cruzi viability assay using beta-GAL activity. This assay was run at single shot at 5uM compound concentration per well. The biological reagents consisted of NIH-3T3 host cells and trypomastigotes parasitic cells; both cell types were set to a 3.3 * 10^5 cells/mL dilution in assay DMEM by means of a CASY cell counter device using a 60um capillary. 6 uL of the mixture were dispensed per well (about 1 * 10^3 host-cells and 1 * 10^3 parasites) with a Multidrop Combi dispenser. […] In all wells, the percentage of DMSO never exceeded 0.5%. Plates incubated for four days at 37C, 5% CO2. The substrate used for the assay fluorescence intensity (FLINT) readout was resorufin-beta-D-galactopiranoside (Sigma-Aldrich) at 5uM per well. It was diluted in PBS supplemented with the soft detergent Igepal (Fluka).; assay type: functional, organism-based, Mus musculus; conditions: Tulahuen, NIH3T3
[2] = test system: Trypanosoma cruzi; experiment: (§1) GSK_TCAKS: pIC50 Trypanosoma cruzi Imaging: Infected Cells. […] Cells were then washed once with PBS before infection. T. cruzi trypomastigotes, collected at days 5 to 8 after infection from LLC-MK2 parasite infected cultures, were allowed to swim out for 4h at 37C from a centrifuged pellet (2,500 rpm/10 min/room temperature). Trypomastigotes were then collected and counted in a CASY Cell Counter. Trypomastigotes, in supplemented DMEM, were added to H9c2 cultures in a multiplicity of infection of 1 and incubated for 18 h. Cells were washed once with PBS before incubation of the infected H9c2 monolayer with trypsin (Life-Technologies) to detach cells from the flask. Cells were counted in a CASY Cell Counter using a 150 um capillary and their density set at 5 * 10^4 cells per mL in supplemented assay DMEM. Infected H9c2 were dispensed into 384-well poly-lysine coated assay plates at 50uL per well using a Multidrop Combi dispenser. After seeding them, the plates were incubated at 37C, 5% CO2 for 72h. Cultures were then fixed and stained by addition of 50 uL of a solution containing 8% formaldehyde and 4 uM DRAQ5 DNA dye (BioStatus, UK) per well. […] Five images were collected per well for reliable statistical analysis. Automated image analysis was performed with a script developed on Acapella High Content Imaging and Analysis Software (PerkinElmer). Output: percentage of infected cells per well as a second infection marker.; assay type: functional, organism-based, Rattus norvegicus; conditions: H9c2, 4 h
[3] = test system: Trypanosoma cruzi; experiment: GSK_TCAKS: pIC50 Trypanosoma cruzi Imaging: Amastigotes/Cell. […] Cells were then washed once with PBS before infection. T. cruzi trypomastigotes, collected at days 5 to 8 after infection from LLC-MK2 parasite infected cultures, were allowed to swim out for 4h at 37C from a centrifuged pellet (2,500 rpm/10 min/room temperature). Trypomastigotes were then collected and counted in a CASY Cell Counter. Trypomastigotes, in supplemented DMEM, were added to H9c2 cultures in a multiplicity of infection of 1 and incubated for 18 h. Cells were washed once with PBS before incubation of the infected H9c2 monolayer with trypsin (Life-Technologies) to detach cells from the flask. Cells were counted in a CASY Cell Counter using a 150 um capillary and their density set at 5 * 10^4 cells per mL in supplemented assay DMEM. Infected H9c2 were dispensed into 384-well poly-lysine coated assay plates at 50uL per well using a Multidrop Combi dispenser. After seeding them, the plates were incubated at 37C, 5% CO2 for 72h. Cultures were then fixed and stained by addition of 50 uL of a solution containing 8% formaldehyde and 4 uM DRAQ5 DNA dye (BioStatus, UK) per well. […] Five images were collected per well for reliable statistical analysis. Automated image analysis was performed with a script developed on Acapella High Content Imaging and Analysis Software (PerkinElmer). Output: number of amastigotes per cell as infection level measurement.; assay type: functional, organism-based, Rattus norvegicus; conditions: H9c2, 4 h
[4] = test system: Trypanosoma cruzi; experiment: as §1, with “H2C9” for “Trypanosoma cruzi”, “H9c2 Host Cardiomyocytes.” for “Infected Cells.”, “Number” for “percentage”, “H9c2 Host Cardiomyocytes nuclei to determine drug-related cytotoxicity.” for “infected cells per well as a second infection marker.”; assay type: functional, organism-based, Rattus norvegicus; conditions: H9c2, 4 h
[5] = test system: Leishmania donovani; experiment: GSK_TCAKS: pIC50 Leishmania donovani viability assay using fluorescence intensity. Assay plates (1536-well) were prepared by adding 30nL per well of compound. For single shot assay, the final compound concentration was 5uM. […] Briefly, eGFP LdBOB axenic amastigotes were harvested, fixed and counted in a CASY cell counter (Roche-Applied Science). A final concentration of 1.5 * 10^5 cells per well were prepared in amastigote media containing 500 U/mL penicillin/streptomycin (Invitrogen) and 6uL was dispensed to each experimental well using a Multidrop Combi dispenser (Thermo Scientific). 6uL of assay media was dispensed to control columns used as reference for 100% compound response. Following incubation for 72 h at 37C, 5% CO2, 2 uL of resazurin was added to each well at a final concentration of 0.5 mM in phosphate buffered saline (PBS) with IGEPAL (Sigma-Aldrich), 0.05% (v/v).; assay type: functional, organism-based
[6] = test system: Leishmania donovani; experiment: (§2) GSK_TCAKS: pIC50 Leishmania donovani Imaging: Infected Macrophages. Assay plates (384-well) were prepared by adding 250nL of compound to each well. For single shot assay, the final compound concentration was 5 uM. […] Automated image analysis was performed with a script developed on Acapella High Content Imaging and Analysis Software (PerkinElmer). Output: Percent of infected macrophage cells were reported for each well.; assay type: functional, organism-based, Homo sapiens; conditions: THP-1
[7] = test system: Leishmania donovani; experiment: as §2, with “Amastigotes/Macrophages.” for “Infected Macrophages.”, “Average number” for “Percent”, “amastigotes per” for “infected”, “cell” for “cells”; assay type: functional, organism-based, Homo sapiens; conditions: THP-1
[8] = test system: Leishmania donovani; experiment: as §2, with “THP-1 Host” for “Infected”, “THP-1 cell count” for “Percent of infected macrophage cells”; assay type: functional, organism-based, Homo sapiens
[9] = test system: Trypanosoma brucei brucei; experiment: GSK_TCAKS: pIC50 Trypanosoma brucei viability assay using fluorescence intensity. Assay plates (1536-well) were prepared by dispensing 25nL of compound solution per well using an Echo acoustic dispenser (Labcyte).; assay type: functional, organism-based; conditions: Lister 427, 2 h
[10] = test system: Trypanosoma brucei brucei; experiment: GSK_TCAKS: pIC50 Trypanosoma brucei viability assay using luminiscence. Assay plates (1536-well) were prepared. T. brucei cultures were harvested and counted in a CASY cell counter. A parasite suspension was prepared at a final concentration of 5 * 10^4 cells/mL in complete HMI9 medium and 6uL was dispensed to all wells containing compounds using a Multidrop Combi dispenser. 6uL of HMI9 media with 0.4% DMSO were dispensed to control columns. Plates were incubated for 24 h at 37C, 5% CO2 then tempered for 10 min at room temperature. ATP content was quantified by adding 4 uL of CellTiter-Glo Reagent (Promega) according to the manufacturer's instructions. Luminescence was measured using a ViewLux.; assay type: functional, organism-based; conditions: Lister 427, CASY
[11] = GSK_TCAKS: pIC50 HepG2 human cell line viability assay using luminiscence. […] Seeding density was checked to ensure that new mono-layers were not more than 50% confluent at the time of harvesting. Cell suspension was added to 500 mL of the same medium at a final density of 1.2 * 10^5 cells/mL. This cell suspension was dispensed (25 uL, 3000 cells per well) into 384-well clear-bottom plates using a Multidrop Combi dispenser. Prior to addition of the cell suspension, the screening compounds (250 nL) were pre-dispensed into the plates with an Echo liquid handler. Plates were incubated for 48 h at 37C, 5% CO2. After incubation, plates equilibrated at room temperature for 30 min before proceeding to develop the luminescent signal. The signal developer, CellTiter-Glo Reagent, was allowed to equilibrate at room temperature for 30 min and added to the plates (25uL per well) using a Multidrop Combi dispenser. Plates were left for 10 min at room temperature for stabilization and then read using a ViewLux.; assay type: toxicity, cell-based
[12] = test system: NIH3T3; experiment: GSK_TCAKS: pIC50 NIH 3T3 cell line viability assay using luminiscence. Tissue culture surface treated assay plates (1536-well) were used. […] The 100% cells survival control was determined exposing the host-cells to a 0.5% DMSO concentration, whereas the 100% toxicity control was achieved by seeding the cells in presence of Amphotericin B at 50uM. Plates were incubated for four days at 37C, 5% CO2. The assay readout was developed by addition of 5uL of CellTiter-Glo Reagent following the manufacturer's instructions. Luminiscence was measured using a ViewLux.; assay type: functional, cell-based; conditions: Mus musculus, NIH3T3, 96 h
[13] = target: Sterol 14-alpha demethylase (Trypanosoma cruzi (strain CL Brener), UniProt Q7Z1V1); experiment: GSK_TCAKS: pIC50 CYP51 from Trypanosoma cruzi.; assay type: functional
Chain of Sterol 14-alpha demethylase (Q7Z1V1 whole entry): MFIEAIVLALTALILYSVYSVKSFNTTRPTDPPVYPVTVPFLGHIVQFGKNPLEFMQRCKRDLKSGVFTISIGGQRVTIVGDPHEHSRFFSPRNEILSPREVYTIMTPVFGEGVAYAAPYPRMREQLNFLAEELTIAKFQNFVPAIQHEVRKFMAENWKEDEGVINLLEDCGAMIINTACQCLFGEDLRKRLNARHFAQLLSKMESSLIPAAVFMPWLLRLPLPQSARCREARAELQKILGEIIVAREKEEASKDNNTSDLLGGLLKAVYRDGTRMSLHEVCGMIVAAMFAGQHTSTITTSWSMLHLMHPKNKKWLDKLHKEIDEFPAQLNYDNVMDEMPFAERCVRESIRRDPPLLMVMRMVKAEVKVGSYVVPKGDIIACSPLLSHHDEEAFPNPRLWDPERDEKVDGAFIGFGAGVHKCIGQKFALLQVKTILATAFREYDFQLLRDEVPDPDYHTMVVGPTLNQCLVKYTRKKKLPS

Row | Structure (SMILES) | IC50 [1] [µM] | IC50 [2] [µM] | IC50 [3] [µM] | IC50 [4] [µM] | IC50 [5] [µM] | IC50 [6] [µM] | IC50 [7] [µM] | IC50 [8] [µM] | IC50 [9] [µM] | IC50 [10] [µM] | IC50 at 48 h [11] [µM] | IC50 [12] [µM] | IC50 [13] [µM]
1 | COc1ccc(-c2nc3ncccc3o2)cc1NC(=O)c1cccs1 | 2 | 2.51 | 2 | > 50.1 | 5.01 | > 50.1 | > 50.1 | 20 | 1.26 | 2.51 | > 100 | > 50.1 | > 100
2 | Cc1cc(N(C)C)nc(Nc2ccccc2C)n1 | 1.58 | 0.794 | 0.501 | > 50.1 | > 50.1 | 31.6 | 15.8 | 39.8 | 31.6 | > 39.8 | 63.1 | 39.8 | > 100
3 | O=C1CSC(c2cccnc2)N1c1ccc(Cl)cc1Cl (stereo not drawn) | 0.0708 | 0.251 | 0.158 | > 50.1 | 5.01 | > 50.1 | > 50.1 | > 50.1 | > 39.8 | > 39.8 | > 100 | > 50.1 | 0.158
4 | CN(C)CCN(C)Cc1ccc(F)cc1NS(=O)(=O)c1ccc(Cl)c(Cl)c1 | 1.58 | 2.51 | 2 | 6.31 | 7.94 | 7.94 | 2.51 | 31.6 | 5.01 | 5.01 | 39.8 | 15.8 | > 126
5 | Cn1nc([N+](=O)[O-])nc1Oc1ccc(C(=O)c2ccccc2)cc1 | 0.251 | 0.316 | 0.126 | > 50.1 | > 50.1 | > 50.1 | > 50.1 | > 50.1 | 20 | > 39.8 | > 100 | > 50.1 | > 100
6 | CN1CCCN(C(=O)c2ccc(N3CCCC3)cc2Cl)CC1 | 0.891 | 1 | 0.631 | > 50.1 | 39.8 | > 50.1 | > 50.1 | > 50.1 | > 39.8 | > 39.8 | > 100 | 25.1 | > 100
7 | COc1ccc(C2CC(c3ccccc3Cl)=NN2C(=O)CNC(=O)C2CCC2)cc1 (stereo not drawn) | 2.82 | 1.58 | 1 | > 50.1 | > 50.1 | > 50.1 | > 50.1 | > 50.1 | 0.316 | 0.501 | > 100 | 31.6 | 50.1
8 | CCC(=O)Nc1ccc(-c2nc3ccc(Cl)cc3[nH]2)cc1 | 2 | 1.58 | 0.501 | > 50.1 | > 50.1 | > 50.1 | > 50.1 | > 50.1 | 6.31 | > 39.8 | > 100 | > 50.1 | > 100
9 | N#Cc1cc([N+](=O)[O-])ccc1NC1CCCCCC1 | 2.51 | 2 | 1.26 | > 50.1 | > 50.1 | > 50.1 | > 50.1 | > 50.1 | 2.51 | 3.16 | > 100 | > 50.1 | > 100
10 | Cc1nnnn1-c1cccc(C(=O)N2CCC[C@@]3(C)c4ncncc4CCC23)c1 (stereo partly drawn) | 0.631 | 0.316 | 0.316 | > 50.1 | 0.398 | > 50.1 | 6.31 | > 50.1 | > 39.8 | > 39.8 | > 100 | > 50.1 | 25.1
11 | C=CCOCC1Cn2nc([N+](=O)[O-])nc2O1 (stereo not drawn) | 0.501 | 1.26 | 0.631 | > 50.1 | > 50.1 | > 50.1 | > 50.1 | > 50.1 | > 39.8 | > 39.8 | > 100 | > 50.1 | > 100
12 | Cc1ccc(NC(=O)c2ccc(Cl)c(NC(=O)c3ccc([N+](=O)[O-])cc3)c2)cc1 | 0.631 | 0.501 | 0.2 | > 50.1 | > 50.1 | > 50.1 | > 50.1 | > 50.1 | 7.94 | 15.8 | > 100 | 20 | > 100
13 | C=CCn1nc([N+](=O)[O-])nc1Oc1ccc(Cl)cc1Cl | 0.251 | 0.251 | 0.126 | > 50.1 | > 50.1 | > 50.1 | 39.8 | 39.8 | 20 | > 39.8 | > 100 | 50.1 | 20
14 | Cc1c(C#N)c([N+](=O)[O-])nn1Cc1cccc(Cl)c1Cl | 0.2 | 0.1 | 0.0398 | > 50.1 | > 50.1 | > 50.1 | 15.8 | 15.8 | 15.8 | 25.1 | 79.4 | 39.8 | > 100
15 | Cc1c(CNC(=O)c2ccc(Cn3cc(Cl)c([N+](=O)[O-])n3)cc2)cnn1C | 1 | 1.58 | 0.794 | > 50.1 | > 50.1 | > 50.1 | > 50.1 | > 50.1 | 5.01 | 10 | > 100 | > 50.1 | > 100
16 | O=S(=O)(NCC(c1cccnc1)N1CCN(c2ccccc2F)CC1)c1ccc(F)cc1 (stereo not drawn) | 0.501 | 0.2 | 0.2 | > 50.1 | 3.98 | > 50.1 | 3.98 | > 50.1 | 25.1 | > 39.8 | > 100 | > 50.1 | 0.0794
